Measured values: ChEMBL document CHEMBL1201862, “PubChem BioAssay data set” (2004)
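Where inhibition never reached the appropriate level, the endpoint shown equals the highest concentration tested. Otherwise, values were interpolated linearly from a five-concentration, 48-hour dose response in 96-well plates. Abbreviation: GI50, concentration required for 50% inhibition of growth.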 Active and inactive are the calls of the source. Cut-off read from the data, not from the text of the source: active = GI50 up to about 1.1 µM and inactive = higher.

Columns and labels:
Test in all cases: DTP human tumour cell line panel, 48 h
SW-620 = tested on: SW-620
HT-29 = tested on: HT-29
SK-MEL-28 = tested on: SK-MEL-28
SF-268 = tested on: SF-268
HOP-62 = tested on: HOP-62
EKVX = tested on: EKVX
OVCAR-8 = tested on: OVCAR-8
M14 = tested on: M14
KM12 = tested on: KM12
SK-MEL-2 = tested on: SK-MEL-2
HCT-116 = tested on: HCT-116
ACHN = tested on: ACHN
NCI-H23 = tested on: NCI-H23
IGROV-1 = tested on: IGROV-1
HL-60 = tested on: HL-60
RPMI-8226 = tested on: RPMI-8226

Measured: GI50

CCC(C)C(N)C(=O)NC(CC(N)=O)C(=O)NC(CC(C)C)C(=O)NC(CCCCN)C(=O)NC(C)C(=O)NC(CC(C)C)C(=O)NC(C)C(=O)NC(C)C(=O)NC(CC(C)C)C(=O)NC(C)C(=O)NC(CCCCN)C(=O)NC(CCCCN)C(=O)NC(C(=O)NC(CC(C)C)C(N)=O)C(C)CC (configuration not stated)
inactive: SW-620 20.4 µM | HT-29 19.5 µM | SK-MEL-28 8.59 µM | SF-268 6.47 µM | HOP-62 2.55 µM | EKVX 8.05 µM | OVCAR-8 17.5 µM | M14 2.48 µM | KM12 14.5 µM | SK-MEL-2 19.4 µM | HCT-116 15.6 µM | ACHN 14 µM | NCI-H23 14.7 µM | IGROV-1 17.8 µM | HL-60 2.74 µM

COc1ccc(-c2cc(-c3cc(C)ccc3O)nc(O)n2)cc1
inactive: SW-620 > 100 µM | HT-29 > 100 µM | SK-MEL-28 > 100 µM | SF-268 80.9 µM | HOP-62 22.6 µM | EKVX 7.11 µM | OVCAR-8 74.8 µM | M14 > 100 µM | RPMI-8226 > 100 µM | KM12 > 100 µM | HCT-116 77.1 µM | ACHN 42.8 µM | NCI-H23 > 100 µM | IGROV-1 > 100 µM | HL-60 > 100 µM

C[C@]12CCCC(=O)C1C[C@H](C(=O)O)CC2 (some centres not stated)
inactive: SW-620 > 100 µM | HT-29 > 100 µM | SK-MEL-28 > 100 µM | SF-268 > 100 µM | HOP-62 > 100 µM | OVCAR-8 > 100 µM | M14 > 100 µM | RPMI-8226 > 100 µM | KM12 > 100 µM | SK-MEL-2 > 100 µM | HCT-116 > 100 µM | ACHN > 100 µM | NCI-H23 > 100 µM | IGROV-1 > 100 µM | HL-60 > 100 µM

Cc1cc2nc3c(C(OC4OC(CO)C(O)C(O)C4O)C(O)CO)nn(-c4ccccc4)c3nc2cc1C (configuration not stated)
inactive: HT-29 > 100 µM | SK-MEL-28 > 100 µM | SF-268 > 100 µM | HOP-62 > 100 µM | EKVX > 100 µM | OVCAR-8 > 100 µM | M14 > 100 µM | RPMI-8226 > 100 µM | KM12 > 100 µM | HCT-116 > 100 µM | ACHN > 100 µM | NCI-H23 > 100 µM

CCOc1ccc(/C=C(\Cl)c2ccc(OC)cc2)cc1
inactive: SW-620 > 100 µM | HT-29 > 100 µM | SK-MEL-28 > 100 µM | SF-268 > 100 µM | HOP-62 > 100 µM | EKVX > 100 µM | OVCAR-8 > 100 µM | M14 > 100 µM | RPMI-8226 > 100 µM | HCT-116 > 100 µM | ACHN > 100 µM | NCI-H23 > 100 µM | IGROV-1 > 100 µM | HL-60 47.6 µM

CCC(C)(C)NS(=O)(=O)c1ccccc1
inactive: SW-620 > 100 µM | HT-29 > 100 µM | SK-MEL-28 > 100 µM | HOP-62 > 100 µM | EKVX > 100 µM | OVCAR-8 > 100 µM | M14 > 100 µM | RPMI-8226 > 100 µM | KM12 > 100 µM | SK-MEL-2 > 100 µM | HCT-116 > 100 µM | ACHN > 100 µM | NCI-H23 > 100 µM | IGROV-1 > 100 µM | HL-60 > 100 µM

COc1ccc(C[C@]23CCC(=O)N2CCc2cc(OC)c(O)cc23)cc1O
inactive: SW-620 > 100 µM | HT-29 > 100 µM | SK-MEL-28 > 100 µM | SF-268 > 100 µM | HOP-62 > 100 µM | EKVX > 100 µM | OVCAR-8 30 µM | M14 > 100 µM | RPMI-8226 > 100 µM | KM12 > 100 µM | HCT-116 > 100 µM | ACHN > 100 µM | NCI-H23 > 100 µM | IGROV-1 > 100 µM | HL-60 > 100 µM

Clc1cc(Cc2cc(Cl)c(Cl)c3c2OCOC3)c2c(c1Cl)COCO2
inactive: SW-620 > 100 µM | HT-29 > 100 µM | SK-MEL-28 > 100 µM | SF-268 > 100 µM | HOP-62 25.8 µM | OVCAR-8 36.8 µM | M14 38.4 µM | RPMI-8226 33.4 µM | KM12 > 100 µM | SK-MEL-2 55.5 µM | HCT-116 36.4 µM | ACHN 32.4 µM | NCI-H23 > 100 µM | IGROV-1 40.6 µM | HL-60 93.1 µM

O=C(CSc1nnc(Cc2ccccc2)o1)Nc1ccccc1Cl
inactive: SW-620 > 100 µM | HT-29 > 100 µM | SK-MEL-28 > 100 µM | SF-268 > 100 µM | HOP-62 > 100 µM | OVCAR-8 > 100 µM | M14 > 100 µM | RPMI-8226 > 100 µM | KM12 > 100 µM | SK-MEL-2 > 100 µM | HCT-116 > 100 µM | ACHN > 100 µM | NCI-H23 > 100 µM | IGROV-1 > 100 µM | HL-60 > 100 µM

O=C(c1cccs1)N(C(=S)N1CCN(c2ccccn2)CC1)C1CCCCC1
inactive: SW-620 > 100 µM | HT-29 52 µM | SK-MEL-28 > 100 µM | SF-268 > 100 µM | HOP-62 > 100 µM | OVCAR-8 > 100 µM | M14 76.4 µM | RPMI-8226 43.1 µM | KM12 60.5 µM | SK-MEL-2 58.6 µM | HCT-116 49.3 µM | ACHN 69.2 µM | NCI-H23 > 100 µM | IGROV-1 > 100 µM | HL-60 > 100 µM

CC(=O)Oc1cc(C)c2c(c1OC(C)=O)CC1(O2)[C@@H](C)CCC2[C@@]3(C)CC[C@H](OC(C)=O)C(C)(C)C3CC[C@]21C (some centres not stated)
inactive: SW-620 2.82 µM | HT-29 5.43 µM | SK-MEL-28 4.41 µM | SF-268 3.37 µM | HOP-62 2.65 µM | EKVX 3.69 µM | OVCAR-8 3.01 µM | M14 6.08 µM | RPMI-8226 3.83 µM | KM12 5.13 µM | HCT-116 4.19 µM | ACHN 1.67 µM | NCI-H23 2.19 µM | IGROV-1 2.01 µM

O=[N+]([O-])c1ccc(OCCNc2cccc3ccccc23)cc1
inactive: SW-620 57.1 µM | HT-29 85.5 µM | SK-MEL-28 > 100 µM | SF-268 > 100 µM | HOP-62 > 100 µM | EKVX > 100 µM | OVCAR-8 65.3 µM | M14 > 100 µM | RPMI-8226 24.7 µM | KM12 > 100 µM | SK-MEL-2 > 100 µM | HCT-116 42.8 µM | ACHN > 100 µM | NCI-H23 30.6 µM | IGROV-1 > 100 µM

O=C(Nc1nc2ccccc2n1Cc1ccc(Cl)cc1)NC12CC3CC(CC(C3)C1)C2
inactive: SW-620 65.8 µM | HT-29 74.3 µM | SK-MEL-28 16 µM | SF-268 4.12 µM | HOP-62 17.1 µM | EKVX 32.7 µM | M14 25 µM | RPMI-8226 48.9 µM | KM12 53.8 µM | SK-MEL-2 26.9 µM | HCT-116 19.4 µM | ACHN 35.7 µM | NCI-H23 16.4 µM | IGROV-1 41 µM | HL-60 > 100 µM

N#C/N=C(\NCCc1c[nH]c2ccccc12)NCc1ccccc1
inactive: SW-620 > 100 µM | HT-29 37.8 µM | SK-MEL-28 80.7 µM | SF-268 > 100 µM | HOP-62 > 100 µM | EKVX 45.6 µM | OVCAR-8 > 100 µM | M14 51.1 µM | RPMI-8226 42.6 µM | KM12 36.4 µM | HCT-116 50.9 µM | ACHN 25.4 µM | NCI-H23 > 100 µM | IGROV-1 > 100 µM | HL-60 27.5 µM

CSC1(C)CC2C(CC1N1CCOCC1)C2(C)C (configuration not stated)
inactive: HT-29 > 100 µM | SK-MEL-28 > 100 µM | SF-268 > 100 µM | OVCAR-8 > 100 µM | M14 > 100 µM | RPMI-8226 > 100 µM | KM12 > 100 µM | SK-MEL-2 > 100 µM | HCT-116 > 100 µM | ACHN > 100 µM | NCI-H23 > 100 µM | IGROV-1 > 100 µM | HL-60 > 100 µM

CC(C)CCC[C@@H](C)C1CCC2[C@@H]3CC=C4C[C@@H](C(=O)NCCN(C)C)CC[C@]4(C)C3CC[C@@]21C (some centres not stated)
inactive: SW-620 30 µM | HT-29 34.2 µM | SK-MEL-28 35.2 µM | SF-268 36 µM | HOP-62 18.9 µM | EKVX 47.5 µM | OVCAR-8 33.1 µM | M14 16.3 µM | RPMI-8226 19.8 µM | KM12 14.9 µM | SK-MEL-2 11.5 µM | ACHN 35.8 µM | NCI-H23 18.3 µM | IGROV-1 31.1 µM | HL-60 45.8 µM

CC(=O)OC1CC2C(C)(C)C(=O)C=C[C@]2(C)C2CCC3(C)C(c4ccoc4)C(=O)[C@H]4O[C@]43[C@]12C (some centres not stated)
inactive: SW-620 28.5 µM | SK-MEL-28 15.5 µM | SF-268 38.9 µM | HOP-62 22.6 µM | EKVX 31.3 µM | OVCAR-8 19.4 µM | M14 26.7 µM | RPMI-8226 15.9 µM | SK-MEL-2 20.8 µM | HCT-116 15.4 µM | ACHN 17.9 µM | NCI-H23 21.5 µM | IGROV-1 25.5 µM | HL-60 20.2 µM

COc1ccc(CNc2cc(OC)cc(OC)c2)cc1
inactive: SW-620 > 100 µM | SK-MEL-28 51.5 µM | SF-268 33.9 µM | HOP-62 > 61.5 µM | EKVX 60.8 µM | OVCAR-8 > 82 µM | M14 > 100 µM | RPMI-8226 > 49.7 µM | KM12 48.6 µM | SK-MEL-2 > 74 µM | HCT-116 52.4 µM | ACHN > 69.3 µM | NCI-H23 40.6 µM | IGROV-1 > 71.6 µM | HL-60 > 39.2 µM
